Experimental data as given in PMC9127364, “2-Aminoacrylate stress damages diverse PLP-dependent enzymes in vivo” (The Journal of Biological Chemistry, 2022).

Legend:
IlvA [1] = molecular target: T1, IlvA (Salmonella enterica, UniProt P20506); assay: pyruvate-PLP adduct released by base from the purified protein, HPLC; assay type: cell-based; settings: covalent; 2AA formed in vivo, ridA host, 5 mM L-serine; attacks active-site PLP
T1 construct: pET20b derivative pDM1578, N-terminal His6 tag; expressed in S. enterica DM13509 (wild type) and DM17050 (ridA)
T1 sequence (P20506 1-514): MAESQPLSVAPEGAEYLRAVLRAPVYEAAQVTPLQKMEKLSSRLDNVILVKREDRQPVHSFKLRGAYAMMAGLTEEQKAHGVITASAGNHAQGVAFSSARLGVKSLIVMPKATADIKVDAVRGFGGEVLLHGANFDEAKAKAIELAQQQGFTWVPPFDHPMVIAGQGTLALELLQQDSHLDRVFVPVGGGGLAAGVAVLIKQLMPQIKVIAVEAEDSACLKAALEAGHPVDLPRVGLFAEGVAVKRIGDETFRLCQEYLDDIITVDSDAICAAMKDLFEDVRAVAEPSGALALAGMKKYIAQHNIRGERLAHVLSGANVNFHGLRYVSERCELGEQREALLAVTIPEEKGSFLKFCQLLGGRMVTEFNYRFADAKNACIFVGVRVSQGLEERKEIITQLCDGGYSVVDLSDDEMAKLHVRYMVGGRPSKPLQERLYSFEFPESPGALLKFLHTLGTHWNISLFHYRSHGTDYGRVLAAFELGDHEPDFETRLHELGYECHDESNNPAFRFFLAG

IlvE [2] = molecular target: T2, IlvE (Salmonella enterica, UniProt P0A1A5); assay: as above; assay type: cell-based; settings: covalent; 2AA formed in vivo, ridA host, 5 mM L-serine; attacks active-site PLP
T2 construct: pET28b plasmid, purified on HisTrap (His-tagged); expressed in S. enterica DM13509 (wild type) and DM17050 (ridA)
T2 sequence (P0A1A5 2-309): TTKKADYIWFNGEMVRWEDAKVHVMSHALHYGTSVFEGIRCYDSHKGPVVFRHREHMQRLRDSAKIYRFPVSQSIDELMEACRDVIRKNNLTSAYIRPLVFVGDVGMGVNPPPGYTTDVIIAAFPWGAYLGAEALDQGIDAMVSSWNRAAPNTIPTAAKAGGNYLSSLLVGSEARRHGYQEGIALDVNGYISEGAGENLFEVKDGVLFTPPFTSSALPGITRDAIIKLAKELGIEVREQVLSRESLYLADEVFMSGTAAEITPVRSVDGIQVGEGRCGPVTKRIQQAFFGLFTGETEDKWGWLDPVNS
Description: pyruvate-PLP adduct released by base from the purified protein, HPLC on IlvE

Alr [3] = molecular target: T3, Alr (Salmonella enterica, UniProt P0A1A3); assay: as above; assay type: cell-based; settings: covalent; 2AA formed in vivo, ridA host, 5 mM L-serine; attacks active-site PLP
T3 construct: pET20b derivative pDM1602, N-terminal His6 tag; expressed in and purified from S. enterica DM13509 (wild type) and DM17050 (ridA)
Description: pyruvate-PLP adduct released by base from the purified protein, HPLC on Alr

Alr [4] = molecular target: T3, Alr; assay: incubation with purified protein, base release of cofactors, HPLC; assay type: binding; settings: covalent; suicide inhibitor, forms pyruvate-PLP in the active site; protein from ridA+ host
IlvA [5] = molecular target: T1, IlvA; assay: base release of bound cofactor, HPLC at […] nm; assay type: binding; settings: protein from wild-type (ridA+) host; 30 mM KOH release; storage buffer with 10 μM PLP
Alr [6] = molecular target: T3, Alr; assay: base release of bound cofactor, HPLC at […] nm; assay type: binding; settings: protein from wild-type (ridA+) host; 30 mM KOH release; storage buffer with 10 μM PLP
IlvE [7] = molecular target: T2, IlvE; assay: base release of bound cofactor, HPLC at […] nm; assay type: binding; settings: protein from wild-type (ridA+) host; 30 mM KOH release; storage buffer with 10 μM PLP
IlvE [8] = molecular target: T2, IlvE; assay: base release of bound cofactor, HPLC at […] nm; assay type: binding; settings: protein from wild-type (ridA+) host; 30 mM KOH release; storage buffer with 10 μM PLP; remark: listed apart in the source

T3 sequence (P0A1A3 whole entry): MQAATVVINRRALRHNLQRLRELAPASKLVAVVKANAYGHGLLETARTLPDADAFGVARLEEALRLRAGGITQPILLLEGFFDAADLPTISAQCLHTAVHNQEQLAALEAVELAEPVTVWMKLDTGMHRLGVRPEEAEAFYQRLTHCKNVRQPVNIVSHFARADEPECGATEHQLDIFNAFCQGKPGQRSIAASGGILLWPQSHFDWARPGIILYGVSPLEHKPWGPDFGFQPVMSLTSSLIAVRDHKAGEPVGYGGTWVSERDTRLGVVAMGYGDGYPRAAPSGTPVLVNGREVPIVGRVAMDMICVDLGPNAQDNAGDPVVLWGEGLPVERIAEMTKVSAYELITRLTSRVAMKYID

For `C=C(N)C(=O)O` [2AA], the Pyruvate-PLP (IlvA [1]) was 0.03 ± <0.01, the Pyruvate-PLP (IlvE [2]) was 0.72 ± <0.01 and the Pyruvate-PLP (Alr [3]) was 0.11 ± <0.01.
With `NC(CCl)C(=O)O` (centres unmarked) [3CA] the “incubation with purified protein, base release of cofactors, HPLC” value (Alr [4]) was “Alr but not IlvA is sensitive to 3-chloroalanine (3CA)”.
In the case of `Cc1ncc(COP(=O)(O)O)c(C=O)c1O` [PLP], the PLP (IlvA [5]) is reported as 1.25 ± 0.04 nmol/nmol protein, the PLP (Alr [6]) is reported as 0.87 ± <0.01 and the PLP (IlvE [7]) is reported as 0.30 ± <0.01.
For `Cc1ncc(COP(=O)(O)O)c(CN)c1O` [PMP], the PMP (IlvE [8]) was 0.33 ± <0.01.
